Experimental data as given in patent US9580432B2, “Fused pyrimidine compound or salt thereof” (TAIHO PHARMACEUTICAL CO., LTD., priority 2013, dated 2017).

Experiments:
[1] = Influence on body weight of SD rat by repeated administration (in vivo); conditions: two weeks; for Relative body weight ratio (%): 750 mg/kg orally once a day, relative to vehicle-administered group
Protocol: The rats were grouped as follows, with four animals in each group, by a random classification method such that the average body weights of the each groups would be almost uniform (Day 1).
The body weight change (BWC) was used as an index indicating the systemic toxicity caused by drug administration. The BWC was calculated by the following formula. BWC (%)=([(Rat body weight on 14 days after the administration)−(rat body weight at the time of grouping)]/(rat body weight at the time of grouping))×100
The relative body weight change ratios in the each compound-administered groups were calculated by the following formula when the BWC in the vehicle-administered group was set as 1, and the results are indicated in Table 52. Relative body weight change ratio (%)=(BWC in the compound-administered group)/(BWC in the vehicle-administered group)×100

[2] = Body weight change ratio in TMD8-transplanted SCID mice; format: in vivo; conditions: Day 17; 50 mg/kg orally once a day
Source text: (§1) Human B cell lymphoma-derived cell line TMD8 was subcutaneously transplanted into SCID mice. At the time point when the volume of engrafted tumors reached 100 to 200 mm^3, the mice were divided into groups, with 5 animals in each group, by a random classification method (Day 1) such that the tumor volumes in the various groups would be uniform, and oral administration was initiated. […] In order to compare the antitumor effect caused by the drug administration, the relative tumor volume (RTV), which was the proliferation ratio of tumor when the tumor volume at the time of grouping was set as one, was determined by the following formula. RTV=(Tumor volume on the day of tumor volume measurement)/(tumor volume at the time of grouping)
The body weight change (BWC) was used as an index indicating the systemic toxicity caused by drug administration. BWC (%)=([(mice body weight on the day of weight measurement)−(mice body weight at the time of grouping)]/(mice body weight at the time of grouping))×100 (Mathematical Formula 1)

[3] = molecular target: purified recombinant human BTK protein (Homo sapiens (Human), UniProt Q06187); assay: Measurement of BTK inhibitory activity (in vitro); format: biochemical; conditions: FL-PEPTIDE 2 substrate 1 μM, ATP 45 μM, 40 minutes at 25° C.
How it was run: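 Recombinant human BTK with FL-PEPTIDE 2 substrate (1 μM), 45 μM ATP and 10 mM MgCl2 in 20 mM HEPES pH 7.5, 2 mM DTT, 0.01% Triton X-100, 5% DMSO; 40 min at 25° C. Reaction stopped with 30 mM EDTA. Phosphorylated and unphosphorylated peptide separated and detected by microchannel capillary electrophoresis.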

[4] = tested on: A431 cells / TMD8 cells; assay: Proliferation inhibitory activity against cell lines expressing BTK and EGFR (in vitro), comparison of selectivity; format: cell-based, human; conditions: ratio from GI50 (nM), 3 days culture, CELLTITER GLO
How it was run: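 BTK-expressing TMD8 DLBCL cells (RPMI1640/10% FBS) and EGFR-overexpressing A431 epidermoid carcinoma cells (DMEM/10% FBS) cultured 1 day, then exposed to compound (0.2% DMSO final) for 3 days at 37° C. Luminescence read-out; inhibition ratio % = (C−T)/(C−C0)×100, with A431/TMD8 ratio as selectivity index.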

[5] = tested on: Human B cell lymphoma-derived cell line TMD8; assay: Antitumor effect, TMD8 subcutaneously transplanted into SCID mice; format: in vivo; conditions: Day 17; 50 mg/kg orally once a day
Source text: as §1

[6] = tested on: purified recombinant human EGFR protein / BTK; assay: BTK inhibition selectivity compared with EGFR kinase inhibitory activity (in vitro); format: biochemical; conditions: EGFR assay ATP 1.5 μM

Sequence of purified recombinant human BTK protein (Q06187 whole entry): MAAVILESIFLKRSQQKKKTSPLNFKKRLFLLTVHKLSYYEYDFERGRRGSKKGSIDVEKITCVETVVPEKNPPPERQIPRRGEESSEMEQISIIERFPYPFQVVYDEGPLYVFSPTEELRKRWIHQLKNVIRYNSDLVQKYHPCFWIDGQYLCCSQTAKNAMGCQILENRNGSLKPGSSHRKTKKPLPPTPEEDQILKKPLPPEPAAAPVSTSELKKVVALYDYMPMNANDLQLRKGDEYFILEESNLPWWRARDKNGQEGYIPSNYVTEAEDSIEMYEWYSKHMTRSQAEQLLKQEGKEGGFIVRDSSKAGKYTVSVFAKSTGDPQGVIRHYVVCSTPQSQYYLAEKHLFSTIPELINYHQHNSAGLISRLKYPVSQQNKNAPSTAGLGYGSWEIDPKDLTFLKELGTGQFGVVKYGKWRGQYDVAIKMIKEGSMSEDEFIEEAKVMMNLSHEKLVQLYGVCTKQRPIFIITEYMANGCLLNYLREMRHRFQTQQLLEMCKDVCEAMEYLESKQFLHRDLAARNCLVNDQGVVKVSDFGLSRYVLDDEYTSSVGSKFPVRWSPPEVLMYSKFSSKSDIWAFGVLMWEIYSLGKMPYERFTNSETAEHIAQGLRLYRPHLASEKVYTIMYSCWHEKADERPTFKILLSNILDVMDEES

Row | Compound | IC50 [3] | EGFR inhibitory activity IC50 value (nM)/BTK inhibitory activity IC50 value (nM) [6] | individuals suffering from loose bowel ([1]; 280 mg/kg orally once a day) | width of rat body weight increase compared with the vehicle-administered group ([1]; 280 mg/kg orally once a day) | BWC (body weight change) [2] | Relative body weight ratio (%) [1] | A431 cell proliferation inhibition ratio/TMD8 cell proliferation inhibitio ratio [4] | RTV (relative tumor volume) [5]
1 | C=CC(=O)N1CCC[C@@H](n2nc(-c3ccc(Oc4ccccc4)cc3)c3c(N)ncnc32)C1 [Comparative Example Compound 1, (R)-1-(3-(4-amino-3-(4-phenoxyphenyl)-1H-pyrazolo[3,4-d]pyrimidin-1-yl)piperidin-1-yl)prop-2-en-1-one, reference compound] | – | – | individuals suffering from loose bowel were recognized | very small | – | – | – | –
2 | C=CC(=O)N1CCC[C@@H](n2nc(C(=O)Nc3nc4cc(F)ccc4o3)c3c(N)ncnc32)C1 [Example 12, (R)-1-(1-acryloylpiperidin-3-yl)-4-amino-N-(5-fluorobenzo[d]oxazol-2-yl)-1H-pyrazolo[3,4-d]pyrimidine-3-carboxamide] | 0.433 nM | 84.2 | – | – | 6.0% | 91.2% | 3077.4 | 0.13
3 | C=CC(=O)N1CCC(Cn2nc(C(=O)Nc3nc4ccccc4o3)c3c(N)ncnc32)CC1 [Example 68, 1-((1-acryloylpiperidin-4-yl)methyl)-4-amino-N-(benzo[d]oxazol-2-yl)-1H-pyrazolo[3,4-d]pyrimidine-3-carboxamide] | 13.2 nM | 11.4 | – | – | – | – | >4785.8 | –
4 | C=CC(=O)N1CC(Cn2nc(C(=O)Nc3nc4ccccc4o3)c3c(N)ncnc32)C1 [Example 70, 1-((1-acryloylazetidin-3-yl)methyl)-4-amino-N-(benzo[d]oxazol-2-yl)-1H-pyrazolo[3,4-d]pyrimidine-3-carboxamide] | 3.17 nM | 12.2 | – | – | – | – | >8369.4 | –

Continued, in another order:

Row | IC50 [3] | EGFR inhibitory activity IC50 value (nM)/BTK inhibitory activity IC50 value (nM) [6] | Compound | individuals suffering from loose bowel ([1]; 280 mg/kg orally once a day) | width of rat body weight increase compared with the vehicle-administered group ([1]; 280 mg/kg orally once a day) | BWC (body weight change) [2] | Relative body weight ratio (%) [1] | A431 cell proliferation inhibition ratio/TMD8 cell proliferation inhibitio ratio [4] | RTV (relative tumor volume) [5]
5 | 0.813 nM | 28.8 | C=CC(=O)N1CCC[C@@H](n2nc(C(=O)Nc3nc4ccccc4o3)c3c(N)ncnc32)C1 [Example 13, (R)-1-(1-acryloylpiperidin-3-yl)-4-amino-N-(benzo[d]oxazol-2-yl)-1H-pyrazolo[3,4-d]pyrimidine-3-carboxamide] | – | – | 3.8% | 79.1% | 4872.2 | 4.24
6 | 5.89 nM | 42.0 | C=CC(=O)N[C@H]1CC[C@@H](n2nc(C(=O)Nc3nc4ccccc4o3)c3c(N)ncnc32)CC1 [Example 71, 1-((1S,4S)-4-acrylamidocyclohexyl)-4-amino-N-(benzo[d]oxazol-2-yl)-1H-pyrazolo[3,4-d]pyrimidine-3-carboxamide] | – | – | – | – | >7657.0 | –
7 | 28.1 nM | 12.4 | C=CC(=O)N[C@H]1CC[C@H](n2nc(C(=O)Nc3nc4ccccc4o3)c3c(N)ncnc32)CC1 [Example 72, 1-((1R,4R)-4-acrylamidocyclohexyl)-4-amino-N-(benzo[d]oxazol-2-yl)-1H-pyrazolo[3,4-d]pyrimidine-3-carboxamide] | – | – | – | – | >2802.7 | –
